Experimental data: ChEMBL document CHEMBL1152764, “Penicilliols A and B, novel inhibitors specific to mammalian Y-family DNA polymerases” (Bioorg Med Chem, 2009)
Active and inactive are the calls of the source. The calls are words filed in the database; no cut-off is given here.

Columns and labels:
[1] = target: DNA-directed DNA polymerase (Enterobacteria phage T4) (UniProt P04415); assay: Inhibition of Enterobacteria phage T4 DNA polymerase at 100 uM; conditions: Tequatrovirus T4
[2] = target: DNA nucleotidylexotransferase (Bos taurus) (UniProt P06526); assay: Inhibition of calf terminal deoxynucleotidyltransferase at 100 uM
[3] = target: Polynucleotide kinase (Enterobacteria phage T4) (UniProt P06855); assay: Inhibition of Enterobacteria phage T4 Polynucleotide kinase at 100 uM; conditions: Tequatrovirus T4
Homo sapiens [4] = species: Homo sapiens; assay: Inhibition of human DNA polymerase gamma at 100 uM
[5] = tested on: Brassica oleracea var. botrytis; assay: Inhibition of cauliflower DNA polymerase alpha at 100 uM
Bos taurus [6] = species: Bos taurus; assay: Inhibition of calf DNA polymerase alpha at 100 uM
Drosophila melanogaster [7] = assay: Inhibition of fruit fly DNA polymerase epsilon at 100 uM
[8] = target: T1, DNA polymerase iota (Mus musculus) (UniProt Q6R3M4); assay: Inhibition of mouse DNA polymerase iota
T1 sequence (whole entry): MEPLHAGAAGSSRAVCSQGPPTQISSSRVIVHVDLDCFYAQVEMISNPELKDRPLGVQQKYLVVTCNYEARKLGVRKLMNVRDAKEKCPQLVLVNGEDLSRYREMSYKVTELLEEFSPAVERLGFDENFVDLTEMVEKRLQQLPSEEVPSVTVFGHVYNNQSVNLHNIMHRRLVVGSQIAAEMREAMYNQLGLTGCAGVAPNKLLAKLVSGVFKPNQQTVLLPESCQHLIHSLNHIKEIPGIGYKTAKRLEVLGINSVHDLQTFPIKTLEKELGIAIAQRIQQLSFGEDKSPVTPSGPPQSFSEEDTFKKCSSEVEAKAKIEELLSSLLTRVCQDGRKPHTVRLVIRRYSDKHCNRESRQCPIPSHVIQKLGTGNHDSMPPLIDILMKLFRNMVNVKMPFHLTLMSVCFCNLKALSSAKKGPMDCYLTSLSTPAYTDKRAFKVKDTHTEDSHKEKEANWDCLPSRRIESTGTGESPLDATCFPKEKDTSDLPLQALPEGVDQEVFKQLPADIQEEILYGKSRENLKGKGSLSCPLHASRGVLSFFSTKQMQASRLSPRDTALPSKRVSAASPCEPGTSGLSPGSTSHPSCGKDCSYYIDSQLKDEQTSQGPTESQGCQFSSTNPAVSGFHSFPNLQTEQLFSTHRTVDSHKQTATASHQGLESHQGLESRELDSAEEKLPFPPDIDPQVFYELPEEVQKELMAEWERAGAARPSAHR

[9] = target: T2, DNA polymerase eta (Homo sapiens) (UniProt Q9Y253); assay: Inhibition of human DNA polymerase eta
T2 sequence (whole entry): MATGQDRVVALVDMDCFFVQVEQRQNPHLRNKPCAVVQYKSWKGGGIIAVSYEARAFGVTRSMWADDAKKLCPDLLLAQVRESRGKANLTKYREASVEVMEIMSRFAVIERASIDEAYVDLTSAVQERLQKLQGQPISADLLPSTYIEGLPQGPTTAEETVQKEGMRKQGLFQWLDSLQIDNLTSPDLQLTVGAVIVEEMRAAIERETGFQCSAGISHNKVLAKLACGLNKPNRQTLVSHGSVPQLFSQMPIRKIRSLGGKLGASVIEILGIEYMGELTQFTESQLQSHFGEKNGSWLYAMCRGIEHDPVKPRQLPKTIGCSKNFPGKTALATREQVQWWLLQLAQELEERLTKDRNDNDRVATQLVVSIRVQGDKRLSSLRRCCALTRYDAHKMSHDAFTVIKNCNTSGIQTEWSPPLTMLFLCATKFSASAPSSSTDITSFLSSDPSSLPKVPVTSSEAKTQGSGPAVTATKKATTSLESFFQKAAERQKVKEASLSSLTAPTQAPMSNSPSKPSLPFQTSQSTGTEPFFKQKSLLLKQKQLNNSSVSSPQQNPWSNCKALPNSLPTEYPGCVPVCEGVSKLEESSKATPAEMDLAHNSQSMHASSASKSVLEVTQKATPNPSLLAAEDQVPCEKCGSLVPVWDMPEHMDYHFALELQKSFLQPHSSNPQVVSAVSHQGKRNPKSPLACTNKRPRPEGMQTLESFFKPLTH

[10] = target: Telomerase reverse transcriptase (Homo sapiens) (UniProt O14746); assay: Inhibition of human telomerase at 100 uM
[11] = target: T3, DNA polymerase kappa (Homo sapiens) (UniProt Q9UBT6); assay: Inhibition of human DNA polymerase kappa
T3 sequence (whole entry): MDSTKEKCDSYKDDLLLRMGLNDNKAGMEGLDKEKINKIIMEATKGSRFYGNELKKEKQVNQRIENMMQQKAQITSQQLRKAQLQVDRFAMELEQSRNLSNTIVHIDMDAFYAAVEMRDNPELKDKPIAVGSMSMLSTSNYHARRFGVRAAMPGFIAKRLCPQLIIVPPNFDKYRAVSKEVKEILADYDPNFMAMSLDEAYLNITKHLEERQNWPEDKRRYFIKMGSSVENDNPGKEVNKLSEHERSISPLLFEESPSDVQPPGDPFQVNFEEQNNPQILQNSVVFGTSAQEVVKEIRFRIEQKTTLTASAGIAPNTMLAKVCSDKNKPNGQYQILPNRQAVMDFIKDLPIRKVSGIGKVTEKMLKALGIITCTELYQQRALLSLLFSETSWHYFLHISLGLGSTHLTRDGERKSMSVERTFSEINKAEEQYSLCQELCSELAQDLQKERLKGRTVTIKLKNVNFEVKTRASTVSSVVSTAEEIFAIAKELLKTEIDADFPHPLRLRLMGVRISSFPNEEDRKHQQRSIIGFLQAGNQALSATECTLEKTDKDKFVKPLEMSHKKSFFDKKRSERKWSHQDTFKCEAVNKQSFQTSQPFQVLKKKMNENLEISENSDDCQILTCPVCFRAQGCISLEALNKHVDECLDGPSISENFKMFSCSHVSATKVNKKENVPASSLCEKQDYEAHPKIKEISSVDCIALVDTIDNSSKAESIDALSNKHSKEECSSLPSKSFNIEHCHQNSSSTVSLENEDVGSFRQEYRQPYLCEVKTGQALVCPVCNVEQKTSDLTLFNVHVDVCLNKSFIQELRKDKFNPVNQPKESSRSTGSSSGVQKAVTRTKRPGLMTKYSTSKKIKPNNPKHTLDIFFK

[12] = target: DNA polymerase lambda (Homo sapiens) (UniProt Q9UGP5); assay: Inhibition of human DNA polymerase lambda at 100 uM
Homo sapiens [13] = species: Homo sapiens; assay: Inhibition of human DNA polymerase epsilon at 100 uM
Oncorhynchus masou = assay: Inhibition of cherry salmon DNA polymerase delta at 100 uM
[14] = target: DNA topoisomerase 1 (Homo sapiens) (UniProt P11387); assay: Inhibition of human DNA topoisomerase 1 at 100 uM
Homo sapiens [15] = species: Homo sapiens; assay: Inhibition of human DNA topoisomerase 2 at 100 uM
[16] = target: Inosine-5'-monophosphate dehydrogenase 2 (Mus musculus) (UniProt P24547); assay: Inhibition of mouse IMP dehydrogenase 2 at 100 uM
Drosophila melanogaster [17] = assay: Inhibition of fruit fly DNA polymerase alpha at 100 uM
[18] = target: Human immunodeficiency virus type 1 reverse transcriptase (Human immunodeficiency virus 1) (UniProt Q72547); assay: Inhibition of HIV-1 reverse transcriptase at 100 uM
Homo sapiens [19] = species: Homo sapiens; assay: Inhibition of human DNA polymerase delta at 100 uM
Bos taurus [20] = species: Bos taurus; assay: Inhibition of calf primase of DNA polymerase alpha at 100 uM
Escherichia phage T7 = assay: Inhibition of Enterobacteria phage T7 RNA polymerase at 100 uM
[21] = target: T3, DNA polymerase kappa (Homo sapiens); assay: Inhibition of human DNA polymerase kappa at 100 uM
Drosophila melanogaster [22] = assay: Inhibition of fruit fly DNA polymerase delta at 100 uM
[23] = target: Deoxyribonuclease-1 (Bos taurus) (UniProt P00639); assay: Inhibition of bovine deoxyribonuclease 1 at 100 uM
Thermus aquaticus = assay: Inhibition of Taq DNA polymerase at 100 uM
[24] = target: DNA polymerase beta (Rattus norvegicus) (UniProt P06766); assay: Inhibition of rat DNA polymerase beta at 100 uM
[25] = target: T2, DNA polymerase eta (Homo sapiens); assay: Inhibition of human DNA polymerase eta at 100 uM
[26] = target: T1, DNA polymerase iota (Mus musculus); assay: Inhibition of mouse DNA polymerase iota at 100 uM
Escherichia coli = assay: Inhibition of Escherichia coli DNA polymerase 1 Klenow fragment at 100 uM
Oryza sativa = assay: Inhibition of rice DNA polymerase lambda at 100 uM

Sequence of DNA nucleotidylexotransferase (Bos taurus) (P06526 whole entry): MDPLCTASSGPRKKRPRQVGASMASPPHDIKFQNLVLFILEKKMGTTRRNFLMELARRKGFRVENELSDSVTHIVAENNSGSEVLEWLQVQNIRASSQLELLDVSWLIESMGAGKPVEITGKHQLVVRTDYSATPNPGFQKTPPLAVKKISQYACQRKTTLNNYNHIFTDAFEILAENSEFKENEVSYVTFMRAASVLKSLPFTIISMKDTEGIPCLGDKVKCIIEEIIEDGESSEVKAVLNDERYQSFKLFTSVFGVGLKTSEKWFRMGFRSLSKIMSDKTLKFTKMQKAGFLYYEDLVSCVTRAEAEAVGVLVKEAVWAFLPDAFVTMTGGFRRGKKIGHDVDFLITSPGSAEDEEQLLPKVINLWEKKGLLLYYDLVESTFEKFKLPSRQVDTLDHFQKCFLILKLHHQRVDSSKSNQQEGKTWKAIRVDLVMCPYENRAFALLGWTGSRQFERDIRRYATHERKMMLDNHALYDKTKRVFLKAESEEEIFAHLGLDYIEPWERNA
Sequence of Polynucleotide kinase (Enterobacteria phage T4) (P06855 whole entry): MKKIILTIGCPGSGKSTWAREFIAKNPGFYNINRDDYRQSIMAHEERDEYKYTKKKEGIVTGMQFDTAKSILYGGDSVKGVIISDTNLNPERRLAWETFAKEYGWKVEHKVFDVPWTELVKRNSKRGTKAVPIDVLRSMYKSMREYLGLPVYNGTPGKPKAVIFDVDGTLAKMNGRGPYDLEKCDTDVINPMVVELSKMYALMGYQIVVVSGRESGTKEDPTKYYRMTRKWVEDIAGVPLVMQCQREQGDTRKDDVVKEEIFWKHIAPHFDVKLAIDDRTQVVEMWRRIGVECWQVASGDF
Sequence of Telomerase reverse transcriptase (Homo sapiens) (O14746 whole entry): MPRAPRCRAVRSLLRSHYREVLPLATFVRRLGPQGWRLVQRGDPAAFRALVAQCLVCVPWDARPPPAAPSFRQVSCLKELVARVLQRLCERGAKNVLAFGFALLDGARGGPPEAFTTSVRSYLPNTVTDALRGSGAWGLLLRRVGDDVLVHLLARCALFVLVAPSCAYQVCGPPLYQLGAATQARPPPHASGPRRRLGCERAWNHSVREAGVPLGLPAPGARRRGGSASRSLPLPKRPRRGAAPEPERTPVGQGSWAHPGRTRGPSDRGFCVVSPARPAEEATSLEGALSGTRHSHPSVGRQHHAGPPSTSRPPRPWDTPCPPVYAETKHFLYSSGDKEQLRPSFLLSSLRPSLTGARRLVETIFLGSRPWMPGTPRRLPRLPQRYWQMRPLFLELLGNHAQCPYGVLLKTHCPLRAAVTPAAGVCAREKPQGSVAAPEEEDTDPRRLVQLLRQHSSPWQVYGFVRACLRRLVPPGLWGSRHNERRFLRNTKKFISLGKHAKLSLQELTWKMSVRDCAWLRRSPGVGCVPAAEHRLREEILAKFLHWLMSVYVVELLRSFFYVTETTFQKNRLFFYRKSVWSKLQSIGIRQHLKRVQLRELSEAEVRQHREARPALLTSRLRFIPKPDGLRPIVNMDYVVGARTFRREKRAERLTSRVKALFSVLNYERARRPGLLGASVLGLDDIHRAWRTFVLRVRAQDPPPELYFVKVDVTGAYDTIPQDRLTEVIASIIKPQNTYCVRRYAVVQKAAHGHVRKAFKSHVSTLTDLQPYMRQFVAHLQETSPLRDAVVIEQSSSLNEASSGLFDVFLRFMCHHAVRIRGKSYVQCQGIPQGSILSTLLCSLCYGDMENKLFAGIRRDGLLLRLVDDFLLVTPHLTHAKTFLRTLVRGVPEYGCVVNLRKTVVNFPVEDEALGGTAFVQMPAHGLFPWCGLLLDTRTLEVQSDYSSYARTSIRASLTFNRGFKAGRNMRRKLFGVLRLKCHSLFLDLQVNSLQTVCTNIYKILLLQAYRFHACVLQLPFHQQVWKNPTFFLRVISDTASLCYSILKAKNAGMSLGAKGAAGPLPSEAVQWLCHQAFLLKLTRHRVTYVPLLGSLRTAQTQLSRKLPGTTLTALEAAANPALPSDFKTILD
Sequence of Inosine-5'-monophosphate dehydrogenase 2 (Mus musculus) (P24547 whole entry, looked up): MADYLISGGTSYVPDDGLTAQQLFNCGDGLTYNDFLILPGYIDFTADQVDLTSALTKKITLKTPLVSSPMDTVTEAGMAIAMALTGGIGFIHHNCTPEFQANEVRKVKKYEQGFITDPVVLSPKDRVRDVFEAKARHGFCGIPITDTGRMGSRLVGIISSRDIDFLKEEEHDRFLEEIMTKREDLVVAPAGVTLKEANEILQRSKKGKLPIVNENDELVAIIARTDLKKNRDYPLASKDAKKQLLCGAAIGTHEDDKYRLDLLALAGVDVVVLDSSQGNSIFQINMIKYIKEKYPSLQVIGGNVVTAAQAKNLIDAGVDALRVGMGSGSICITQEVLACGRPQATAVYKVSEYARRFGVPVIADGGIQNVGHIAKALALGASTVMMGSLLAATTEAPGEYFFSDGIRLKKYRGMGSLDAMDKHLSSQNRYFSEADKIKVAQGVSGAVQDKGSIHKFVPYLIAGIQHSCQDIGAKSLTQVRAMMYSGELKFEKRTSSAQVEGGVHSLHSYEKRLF
Sequence of DNA topoisomerase 1 (Homo sapiens) (P11387 whole entry): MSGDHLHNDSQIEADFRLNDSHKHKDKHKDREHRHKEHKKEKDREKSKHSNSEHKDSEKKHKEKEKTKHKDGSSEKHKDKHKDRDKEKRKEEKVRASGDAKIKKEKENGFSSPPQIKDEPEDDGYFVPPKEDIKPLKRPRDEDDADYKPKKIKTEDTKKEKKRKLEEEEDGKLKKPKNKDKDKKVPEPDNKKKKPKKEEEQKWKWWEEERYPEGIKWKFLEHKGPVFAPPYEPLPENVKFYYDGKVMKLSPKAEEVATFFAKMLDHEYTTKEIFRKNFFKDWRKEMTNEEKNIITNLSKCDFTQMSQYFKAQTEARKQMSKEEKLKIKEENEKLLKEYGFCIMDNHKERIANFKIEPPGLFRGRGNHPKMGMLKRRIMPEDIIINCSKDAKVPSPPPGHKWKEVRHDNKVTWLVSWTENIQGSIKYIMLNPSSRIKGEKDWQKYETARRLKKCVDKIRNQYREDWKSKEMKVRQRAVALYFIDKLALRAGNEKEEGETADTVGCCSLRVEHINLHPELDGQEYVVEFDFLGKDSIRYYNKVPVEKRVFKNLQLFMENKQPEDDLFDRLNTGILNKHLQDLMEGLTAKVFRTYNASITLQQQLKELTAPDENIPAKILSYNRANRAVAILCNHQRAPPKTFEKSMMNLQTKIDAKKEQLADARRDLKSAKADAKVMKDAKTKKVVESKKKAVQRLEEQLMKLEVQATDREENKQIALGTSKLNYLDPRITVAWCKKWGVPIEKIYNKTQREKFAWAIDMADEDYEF
Sequence of DNA-directed DNA polymerase (Enterobacteria phage T4) (P04415 whole entry): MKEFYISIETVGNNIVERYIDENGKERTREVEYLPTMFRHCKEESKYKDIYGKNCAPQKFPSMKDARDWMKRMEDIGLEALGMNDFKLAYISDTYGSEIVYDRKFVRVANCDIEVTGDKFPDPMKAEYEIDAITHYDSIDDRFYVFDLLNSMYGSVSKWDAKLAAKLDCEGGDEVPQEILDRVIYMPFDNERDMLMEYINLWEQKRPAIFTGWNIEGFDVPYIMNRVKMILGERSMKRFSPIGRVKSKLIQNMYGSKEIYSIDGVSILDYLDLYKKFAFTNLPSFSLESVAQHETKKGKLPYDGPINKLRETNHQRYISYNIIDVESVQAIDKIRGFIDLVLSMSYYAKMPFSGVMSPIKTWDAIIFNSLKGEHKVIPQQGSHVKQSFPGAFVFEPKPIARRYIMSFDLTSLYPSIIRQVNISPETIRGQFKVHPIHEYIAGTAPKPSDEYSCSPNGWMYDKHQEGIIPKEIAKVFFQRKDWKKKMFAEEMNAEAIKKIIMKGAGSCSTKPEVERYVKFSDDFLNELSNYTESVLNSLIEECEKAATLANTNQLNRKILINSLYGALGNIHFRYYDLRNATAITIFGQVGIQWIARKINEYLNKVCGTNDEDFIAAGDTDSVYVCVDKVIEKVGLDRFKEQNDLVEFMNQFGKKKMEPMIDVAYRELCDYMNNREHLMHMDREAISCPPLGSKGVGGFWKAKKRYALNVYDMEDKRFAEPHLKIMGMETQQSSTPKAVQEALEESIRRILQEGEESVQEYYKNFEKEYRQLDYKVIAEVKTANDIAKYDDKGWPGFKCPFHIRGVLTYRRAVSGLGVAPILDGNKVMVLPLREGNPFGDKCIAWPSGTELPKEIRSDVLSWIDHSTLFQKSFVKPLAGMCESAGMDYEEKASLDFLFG
Sequence of Deoxyribonuclease-1 (Bos taurus) (P00639 whole entry): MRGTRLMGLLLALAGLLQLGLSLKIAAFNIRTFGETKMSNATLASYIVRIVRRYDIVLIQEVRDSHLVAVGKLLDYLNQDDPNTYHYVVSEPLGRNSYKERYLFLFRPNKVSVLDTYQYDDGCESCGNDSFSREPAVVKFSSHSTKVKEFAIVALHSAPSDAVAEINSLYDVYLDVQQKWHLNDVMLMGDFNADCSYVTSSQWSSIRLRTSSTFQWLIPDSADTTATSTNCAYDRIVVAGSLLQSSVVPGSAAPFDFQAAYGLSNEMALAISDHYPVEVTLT
Sequence of DNA polymerase lambda (Homo sapiens) (Q9UGP5 whole entry): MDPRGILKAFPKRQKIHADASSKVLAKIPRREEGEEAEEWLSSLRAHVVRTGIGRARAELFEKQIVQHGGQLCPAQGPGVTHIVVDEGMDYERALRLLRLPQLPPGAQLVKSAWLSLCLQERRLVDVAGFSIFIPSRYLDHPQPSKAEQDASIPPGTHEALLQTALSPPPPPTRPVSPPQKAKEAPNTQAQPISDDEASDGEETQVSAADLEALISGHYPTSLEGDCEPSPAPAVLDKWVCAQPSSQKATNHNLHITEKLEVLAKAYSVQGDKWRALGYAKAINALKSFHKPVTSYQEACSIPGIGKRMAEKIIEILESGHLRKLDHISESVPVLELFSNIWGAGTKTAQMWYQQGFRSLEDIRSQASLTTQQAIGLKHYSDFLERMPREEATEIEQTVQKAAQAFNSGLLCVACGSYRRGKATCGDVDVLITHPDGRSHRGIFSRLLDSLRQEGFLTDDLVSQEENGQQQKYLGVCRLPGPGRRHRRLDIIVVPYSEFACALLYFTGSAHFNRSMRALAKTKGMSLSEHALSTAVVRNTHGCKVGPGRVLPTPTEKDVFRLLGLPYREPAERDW

Activity [1] | Activity [2] | Activity [3] | Activity (Homo sapiens [4]) | Activity [5] | Activity (Bos taurus [6]) | Activity (Drosophila melanogaster [7]) | Activity [8] | Activity [9] | Activity [10] | Activity [11] | Activity [12] | Activity (Homo sapiens [13]) | Activity (Oncorhynchus masou) | Activity [14] | Activity (Homo sapiens [15]) | Activity [16] | Activity (Drosophila melanogaster [17]) | Activity [18] | Activity (Homo sapiens [19]) | further results | Structure (SMILES)
inactive | inactive | inactive | inactive | inactive | inactive | inactive | Dose-dependent effect | Dose-dependent effect | inactive | Dose-dependent effect | inactive | inactive | inactive | inactive | inactive | inactive | inactive | inactive | inactive | Activity (Bos taurus [20]): inactive; Activity (Escherichia phage T7): inactive; Activity [21]: Active; Activity (Drosophila melanogaster [22]): inactive; Activity [23]: inactive; Activity (Thermus aquaticus): inactive; Activity [24]: inactive; Activity [25]: Active; Activity [26]: Active; Activity (Escherichia coli): inactive | COC1=C(C(=O)CC(C)O)C(=O)C(C)(/C=C/C=C/C(C)O)O1 (stereo unspecified)
inactive | inactive | inactive | inactive | inactive | inactive | inactive | Dose-dependent effect | Dose-dependent effect | inactive | Dose-dependent effect | inactive | inactive | inactive | inactive | inactive | inactive | inactive | inactive | inactive | Activity (Oryza sativa): inactive; Activity (Bos taurus [20]): inactive; Activity (Escherichia phage T7): inactive; Activity [21]: Active; Activity (Drosophila melanogaster [22]): inactive; Activity [23]: inactive; Activity (Thermus aquaticus): inactive; Activity [24]: inactive; Activity [25]: Active; Activity [26]: Active; Activity (Escherichia coli): inactive | C/C=C/C(=O)C1=C(OC)OC(C)(/C=C/C=C/C(C)O)C1=O (stereo unspecified)
